Measured values as given in the supplement of paper PMC11451515.

Tests used:
Conditions in all cases: 48 h
P12-Ichikawa [1] = assay: AUC of viability dose-response curve (% viability x log10 dose units); higher = less sensitive
How it was run: (§1)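 Leukemia cells adapted to each medium were seeded at 500 or 1000 cells/well in 1536-well plates and dosed with library compounds in DMSO at 11 threefold doses from 47 μM to 0.79 nM for 48 h at 37°C. CellTiter-Glo One luminescence was normalised per plate to DMSO and cell-free wells, then fitted with a four-parameter log-logistic model over log10 doses. Area under the curve was taken from this fit by the trapezoidal rule, with curves above full viability scaled and curves failing quality control removed.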

NOMO1 [2] = assay: as above
How it was run: as §1

SEM cells [3] = assay: as above
How it was run: as §1

SEM cells [4] = assay: cell viability relative to DMSO control; higher = less cytotoxic
How it was run: (§2)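 Viability was expressed as a per-plate percentage of DMSO wells, with cell-free wells as background. Leukemia cells (NOMO1 or SEM at 500 cells/well, P12-Ichikawa at 1000 cells/well) were adapted for at least four passages in each medium and seeded in 1536-well plates (5 μl). Library compounds in DMSO were pin-dosed over an 11-point threefold series from 47 μM to 0.79 nM, and CellTiter-Glo One luminescence was read after 48 h at 37°C.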

P12-Ichikawa [5] = assay: as above
How it was run: as §2

NOMO1 [6] = assay: as above
How it was run: as §2

Cn1cc(-c2ccc(F)c(C(F)(F)F)c2)nc1C1CCN(c2ncnc3[nH]ncc23)CC1
AUC of viability dose-response curve
Conditions	NOMO1 [2]	P12-Ichikawa [1]	SEM cells [3]
HPLM + 10% dialyzed FBS	447	463	441
RPMI 5 mM glucose + 10% FBS	447	444	461
RPMI 5 mM glucose + 10% dialyzed FBS	435	446	449

O=C(OCC#CCSc1nnc(-c2cccc3ccccc23)o1)c1cc2ccccc2s1
AUC of viability dose-response curve
Conditions	HPLM + 10% dialyzed FBS	RPMI 5 mM glucose + 10% FBS	RPMI 5 mM glucose + 10% dialyzed FBS
NOMO1 [2]	431	443	455
P12-Ichikawa [1]	451	444	468

SEM cells [4], HPLM + 10% dialyzed FBS
Conditions	cell viability [%]
0.000781 µM	119
0.00234 µM	122
0.00702 µM	121
0.0211 µM	124
0.0632 µM	42.3
0.19 µM	132
0.569 µM	130
1.71 µM	115
5.12 µM	71.7
15.4 µM	128
46.1 µM	113

CC(=O)NCC(=O)N1[C@@H]2CC[C@H]1c1ccc(Nc3ncc(C(F)(F)F)c(NC4CCC4)n3)cc12
AUC of viability dose-response curve
Conditions	NOMO1 [2]	P12-Ichikawa [1]	SEM cells [3]
HPLM + 10% dialyzed FBS	358	258	247
RPMI 5 mM glucose + 10% FBS	344	268	227
RPMI 5 mM glucose + 10% dialyzed FBS	336	290	227

CC(C)Cc1ccc(C(C)C(=O)O)cc1 (stereo unspecified)
AUC of viability dose-response curve
Conditions	HPLM + 10% dialyzed FBS	RPMI 5 mM glucose + 10% FBS	RPMI 5 mM glucose + 10% dialyzed FBS
P12-Ichikawa [1]	442	408	410
SEM cells [3]	371	396	425

cell viability [%]
Conditions	NOMO1 [6]	P12-Ichikawa [5]	SEM cells [4]
HPLM + 10% dialyzed FBS, 0.000781 µM	84.6	86.1	68.7
HPLM + 10% dialyzed FBS, 0.00234 µM	106	86	84.7
HPLM + 10% dialyzed FBS, 0.00702 µM	96.7	92.1	80.1
HPLM + 10% dialyzed FBS, 0.0211 µM	115	90	78.6
HPLM + 10% dialyzed FBS, 0.0632 µM	95.6	91.9	84.9
HPLM + 10% dialyzed FBS, 0.19 µM	102	98.2	90.7
HPLM + 10% dialyzed FBS, 0.569 µM	90.6	92.8	82.2
HPLM + 10% dialyzed FBS, 1.71 µM	102	95.4	78.3
HPLM + 10% dialyzed FBS, 5.12 µM	82	96.6	71.3
HPLM + 10% dialyzed FBS, 15.4 µM	91.4	92.4	85.6
HPLM + 10% dialyzed FBS, 46.1 µM	89.7	95.4	26.4
RPMI 5 mM glucose + 10% FBS, 0.000781 µM	79.4	90.4	90.1
RPMI 5 mM glucose + 10% FBS, 0.00234 µM	93.9	90.9	69.4
RPMI 5 mM glucose + 10% FBS, 0.00702 µM	94.3	84.5	80.9
RPMI 5 mM glucose + 10% FBS, 0.0211 µM	87.3	85	91.3
RPMI 5 mM glucose + 10% FBS, 0.0632 µM	97.2	87.5	89.4
RPMI 5 mM glucose + 10% FBS, 0.19 µM	83.9	89.2	81.9
RPMI 5 mM glucose + 10% FBS, 0.569 µM	97.9	81.8	98.8
RPMI 5 mM glucose + 10% FBS, 1.71 µM	86.7	90.3	87
RPMI 5 mM glucose + 10% FBS, 5.12 µM	83.9	82.1	95.4
RPMI 5 mM glucose + 10% FBS, 15.4 µM	86.1	77.6	77.2
RPMI 5 mM glucose + 10% FBS, 46.1 µM	89.6	81	22.8
RPMI 5 mM glucose + 10% dialyzed FBS, 0.000781 µM	85.6	86.7	93.5
RPMI 5 mM glucose + 10% dialyzed FBS, 0.00234 µM	83	91.6	84.4
RPMI 5 mM glucose + 10% dialyzed FBS, 0.00702 µM	77.8	83.9	89.5
RPMI 5 mM glucose + 10% dialyzed FBS, 0.0211 µM	85.4	83.2	90.9
RPMI 5 mM glucose + 10% dialyzed FBS, 0.0632 µM	72.7	88.3	87.5
RPMI 5 mM glucose + 10% dialyzed FBS, 0.19 µM	82.2	89.8	98.3
RPMI 5 mM glucose + 10% dialyzed FBS, 0.569 µM	76.5	79.1	99.5
RPMI 5 mM glucose + 10% dialyzed FBS, 1.71 µM	91.6	81.7	98.6
RPMI 5 mM glucose + 10% dialyzed FBS, 5.12 µM	81.9	80.9	100
RPMI 5 mM glucose + 10% dialyzed FBS, 15.4 µM	80.5	84.5	77.5
RPMI 5 mM glucose + 10% dialyzed FBS, 46.1 µM	82.1	95.6	35.7

C=C1C(=O)OC2/C=C(/C)CC/C=C(/C)CCC12 (stereo unspecified)
AUC of viability dose-response curve
Conditions	NOMO1 [2]	P12-Ichikawa [1]	SEM cells [3]
HPLM + 10% dialyzed FBS	444	454	455
RPMI 5 mM glucose + 10% FBS	463	442	449
RPMI 5 mM glucose + 10% dialyzed FBS	457	448	446

O.O.CCN1CCN(C(=O)N[C@H](C(=O)N[C@H]2[C@@H]3SC\C(=C(/N3C2=O)C(O)=O)CSC4=NN=N[N]4C)C5=CC=C(O)C=C5)C(=O)C1=O
SEM cells [3]
Conditions	AUC of viability dose-response curve
HPLM + 10% dialyzed FBS	422
RPMI 5 mM glucose + 10% FBS	425
RPMI 5 mM glucose + 10% dialyzed FBS	413

cell viability [%]
Conditions	NOMO1 [6]	P12-Ichikawa [5]	SEM cells [4]
HPLM + 10% dialyzed FBS, 0.000781 µM	77.3	92.1	81
HPLM + 10% dialyzed FBS, 0.00234 µM	86.9	102	81.3
HPLM + 10% dialyzed FBS, 0.00702 µM	106	103	90.4
HPLM + 10% dialyzed FBS, 0.0211 µM	29.4	11.8	20.6
HPLM + 10% dialyzed FBS, 0.0632 µM	106	105	107
HPLM + 10% dialyzed FBS, 0.19 µM	98.8	103	95.4
HPLM + 10% dialyzed FBS, 0.569 µM	110	112	104
HPLM + 10% dialyzed FBS, 1.71 µM	104	95.9	101
HPLM + 10% dialyzed FBS, 5.12 µM	101	106	103
HPLM + 10% dialyzed FBS, 15.4 µM	89.8	108	98.6
HPLM + 10% dialyzed FBS, 46.1 µM	115	108	105
RPMI 5 mM glucose + 10% FBS, 0.000781 µM	81.4	86.8	99.1
RPMI 5 mM glucose + 10% FBS, 0.00234 µM	93.8	99.4	75.9
RPMI 5 mM glucose + 10% FBS, 0.00702 µM	88.5	90.8	99.4
RPMI 5 mM glucose + 10% FBS, 0.0211 µM	19.5	12.4	15.1
RPMI 5 mM glucose + 10% FBS, 0.0632 µM	95.2	103	95.3
RPMI 5 mM glucose + 10% FBS, 0.19 µM	100	100	104
RPMI 5 mM glucose + 10% FBS, 0.569 µM	111	112	107
RPMI 5 mM glucose + 10% FBS, 1.71 µM	109	96.9	94.5
RPMI 5 mM glucose + 10% FBS, 5.12 µM	101	98.7	90.9
RPMI 5 mM glucose + 10% FBS, 15.4 µM	111	99.6	117
RPMI 5 mM glucose + 10% FBS, 46.1 µM	113	105	98.8
RPMI 5 mM glucose + 10% dialyzed FBS, 0.000781 µM	77.5	84.8	88.1
RPMI 5 mM glucose + 10% dialyzed FBS, 0.00234 µM	92.9	88	80.5
RPMI 5 mM glucose + 10% dialyzed FBS, 0.00702 µM	93.5	98.1	97.6
RPMI 5 mM glucose + 10% dialyzed FBS, 0.0211 µM	32	22.6	17.3
RPMI 5 mM glucose + 10% dialyzed FBS, 0.0632 µM	100	102	91.6
RPMI 5 mM glucose + 10% dialyzed FBS, 0.19 µM	96.1	101	106
RPMI 5 mM glucose + 10% dialyzed FBS, 0.569 µM	100	93.3	101
RPMI 5 mM glucose + 10% dialyzed FBS, 1.71 µM	101	97.4	99.7
RPMI 5 mM glucose + 10% dialyzed FBS, 5.12 µM	92.4	97.7	104
RPMI 5 mM glucose + 10% dialyzed FBS, 15.4 µM	102	102	93.4
RPMI 5 mM glucose + 10% dialyzed FBS, 46.1 µM	107	99.5	103
